Assay results taken from US6942663B2, “Laser treatment of cutaneous vascular lesions” (Board of Regents, The University of Texas System, priority 2002, dated 2005).
Entries after “also recorded” stand apart in the source; their conditions may differ.

Key:
Format in all cases: in vivo, hamster
[1] = tested on: blood vessels (arterioles and venules) in skin; assay: Effect of glycerol applied to the subdermal side of skin on blood flow (dorsal skin flap window preparation, CDOCT imaging)
Protocol: Hamsters were anesthetized with a 4:3 mixture of Ketamine (20 mg/ml):Rompun (100 mg/ml) and 0.15 ml/100 g body weight of the solution was delivered IP. […] This in vivo model allows the simultaneous observation of the epidermal and subdermal sides of the skin while maintaining hydration and function [Papenfuss et al., 1979]. The preparation has been used as an in vivo model for optical imaging blood vessels on the subdermal side of skin while maintaining access to the epidermis [Barton et al., 1998, Vargas et al., 2001].
The preparation includes shaving and epilating the entire dorsal area of a hamster. The skin is pulled away from the body along the dorsal midline and sutured to a vertical c-clamp. A circular region 1 cm in diameter is cut from one single thickness of skin, exposing the subdermal side of the opposing thickness of skin. An aluminum chamber is sutured to both sides of the skin, and glass is placed over the cutout section to prevent the tissue from dehydrating on the subdermal side. During the experiments, this glass is removed for improved imaging, and hydration is maintained with application of physiological saline.
Blood vessels in the skin of the dorsal window preparation are located in the subdermal fat and connective tissue layers approximately 400-700 μm beneath the epidermal surface and about 80-100 μm from the exposed subdermal surface of a 100 g hamster. Arterioles and venules in the dorsal window preparation range in diameter between about 50-500 μm in inner diameter, with the main arteriole and venule about 350-500 μm in diameter.
(§1) Anhydrous glycerol was applied to the subdermal side of the dorsal skin flap window preparation. The subdermal side of the window preparation contains a well approximately 2 mm deep and 1 cm in diameter placed directly over the exposed subdermal skin. A small opening at the bottom allows the flow of glycerol out of the well. This well was filled with glycerol and continually refilled for a total time of twenty minutes. Any remaining glycerol was removed from the well at the end of twenty minutes.
(§2) The skin surrounding the main arteriole-venute pair in each window preparation was first imaged using Color Doppler optical coherence tomography (CDOCT) (see FIG. 5). The skin was imaged from the subdermal side since these blood vessels are located approximately 100 μm from the subdermal surface, allowing for accurate determination of vessel flow and size characteristics. In the case of control samples (2), the vessels were irradiated from the epidermal side immediately after imaging the native skin. This was achieved by applying a single pulse from a 532 nm, 3 mm spot size, 10 ms pulse duration laser (Versapulse V, Coherent) to the skin without altering its position relative to the CDOCT sample probe. The experimental setup is illustrated in FIG. 5.
(§3) In the other three samples, glycerol was applied to the subdermal side of the window preparation for twenty minutes after imaging the native skin with CDOCT. The optically cleared skin was then imaged again using CDOCT. Laser pulses were applied in the same manner described above and the skin was re-imaged after twenty-four hours to assess if permanent vessel closure occurred.

[2] = tested on: arterioles and venules of the dorsal skin flap window preparation; assay: Subdermal (direct) laser irradiation of blood vessels after glycerol, RE50 for permanent coagulation; conditions: 532 nm, 10 ms pulse, 3 mm spot, versus published native skin values [Barton et al., 1998]
Source text: as §1

[3] = tested on: main arteriole-venule pair of the dorsal skin flap window preparation; assay: Epidermal laser irradiation of main arteriole-venule pair after glycerol, CDOCT assessment at 24 h
Source text: as §1
In this set of experiments, three dorsal skin flap window preparations were treated with glycerol on the subdermal side of the skin. Then, the main arteriole-venule pair (such as the one labeled A and V in FIG. 3) was irradiated from the epidermal side to determine the approximate range of radiant exposures required to permanently destroy blood vessels in skin treated with glycerol. Since no published data exists for direct comparison with controls, two native hamster dorsal skin flap window preparations were irradiated from the epidermal side as well.
as §2
The skin was imaged again to assess changes to blood flow. […] If any changes in flow or vessel size were observed, the skin was not irradiated again and was imaged after 24 hours. In all, 5 pulses were delivered ranging in radiant exposure from 4.13 J/cm^2 to 16 J/cm^2, the maximum allowable for the laser parameters used. In the second control sample, only a single pulse was delivered with a radiant exposure of 12 J/cm^2.
as §3

OCC(O)CO [glycerol] was tested, and the “permanent vessel damage from agent alone” value ([1]; addition of agent to blood vessels, no laser) was “did not result in any permanent vessel damage”, the flow in arterioles ([1]; glycerol added to subdermal side of skin, prolonged periods of exposure) was “flow in arterioles ceased as well” and the flow in venules ([1]; glycerol added to subdermal side of skin, within twenty minutes, venules approximately 100-400 μm in diameter) was “ceased”. For the same compound, the “flow in arteriole and venule (Doppler image)” value ([1]; glycerol for twenty minutes, arteriole 250 μm, venule 300 μm, imaged from subdermal side) was “no flow remains; also recorded: flow does not remain in either the arteriole or venule”, the “flow in arterioles and venules after hydration (reversibility)” value ([1]; skin hydrated in physiologic saline solution after glycerol) was “returned to physiologic values; also recorded: upon hydration the skin and blood vessels return to their native state” and the “reduction of radiant exposure required for permanent vessel destruction, arterioles” value [2] was 10 factor. The “reduction of radiant exposure required for permanent vessel destruction, venules” value [2] was 5-8 factor, the “vessel outcome 24 h after single pulse of 1.6 J/cm^2” value ([3]; glycerol twenty minutes, arteriole 250 μm, venule 300 μm, 450 μm from epidermal surface, skin hydrated) was “Permanent coagulation has been achieved in both blood vessels; also recorded: flow has not returned to either vessel” and the “vessel outcome after radiant exposure of 4.13 J/cm^2” value ([3]; glycerol, 200 μm arteriole and 410 μm venule) was “successful permanent coagulation”. The “vessel outcome after radiant exposure of 4.95 J/cm^2” value ([3]; glycerol, 300 μm arteriole and 390 μm venule) was “only the venule was successfully coagulated” and the “lowest radiant exposure that successfully destroyed blood vessels” value ([3]; three window preparations, glycerol before irradiation from the epidermal side, 532 nm, 10 ms, 3 mm spot) was 1.6 J/cm^2.
